The source of these data is patent US5348953A, “Substituted azetidinones as anti-inflammatory and antidegenerative agents” (Merck & Co., Inc., priority 1992, dated 1994).

This data set in a line: Extended storage of the L-malic acid salt at rt. It counts as physicochemical. The text has this: NMR (CDCl3 δ from TMS): 0.9-1.0 (m, 6H), 1.0-1.1 (m, 6H), 1.2-1.4 (m, 2H), 1.6-1.95(2 m's, 6H), 2.30 (s, 3H), 2.6-2.9 (2 m's, 4H), 2.92 and 2.94 (2 s, 3H), 3.2-3.4 (m, 2H), 3.52 (br t, 2H, J=8 Hz), 4.5-4.8 (m, 3H), 5.11 (br s, 1H), 7.04 (2 d's, 1H, J=8Hz), 7.13 (br S, 4H).
The material prepared as described above in Example 20, Step A was hydrogenated as described in Example 19, Step B to afford the L-malic acid salt of 2-(S)-[2-[[2-aminoethyl]-ethylamino]-2-oxoethoxy]-3,3-diethyl-N-[1-(R)-(4- methylphenyl)butyl]-4-oxo-1-azetidinecarboxamide as an oil. […] This process could be evaluated by HPLC analysis.

Each structure is given as a SMILES string.

As to `CCC[C@@H](NC(=O)N1C(=O)C(CC)(CC)[C@@H]1OCC(=O)N(CC)CCN)c1ccc(C)cc1` [Example 20, 2-(S)-[2-[[2-Aminoethyl]-ethylamino]-2-oxoethoxy]-3,3-diethyl-N-[1-(R)-(4-methylphenyl)butyl]-4-oxo-1-azetidinecarboxamide], the stability upon storage result was “rearranged upon storage to an equilibrium mixture of isomers”.
